Reference: the CheMixHub viscosity set
“And” between values parts separate entries of the source, which are not always exact repeats. Identical values can stand only once.

Test: xn = mol fraction of the nth substance listed

C/C=C/C(=O)OCC + CCO
viscosity [mPa·s], 101 kPa
Settings	x1 = 0.0991	x1 = 0.1985	x1 = 0.2994	x1 = 0.3961	x1 = 0.5006	x1 = 0.6	x1 = 0.6968	x1 = 0.7816	x1 = 0.8996
293.15 K	1.026	0.929	0.9257	0.9219	0.878	0.8293	0.8016	0.8351	0.8122
298.15 K	0.9334	0.8523	0.8465	0.8404	0.8061	0.7663	0.7402	0.7648	0.7535
303.15 K	0.8498	0.7812	0.7751	0.7739	0.7411	0.7061	0.6855	0.7052	0.7
313.15 K	0.7166	0.6615	0.6607	0.6588	0.6372	0.6091	0.5958	0.6134	0.6108
323.15 K	0.6156	0.5747	0.5702	0.5686	0.5537	0.5363	0.5284	0.5414	0.5401

CCCC[n+]1ccn(C)c1.O=[N+]([O-])[O-] + CCO
101 kPa
Settings	viscosity [mPa·s]
293.15 K, x1 = 0.8	73.11
303.15 K, x1 = 0.6	22.05

CCOS(=O)(=O)[O-].CC[N+](CC)=C(N(C)C)N(C)C + CCO
viscosity [mPa·s], 100 kPa
Settings	x1 = 0.1001	x1 = 0.2003	x1 = 0.2998	x1 = 0.4023	x1 = 0.4998	x1 = 0.6016	x1 = 0.6979	x1 = 0.8024	x1 = 0.8974
293.15 K	2.916	5.857	11.49	20.43	32.82	54.53	82.56	121	160.5
298.15 K	2.62	5.197	9.941	17.2	27.12	43.51	64.03	91.64	119.1
303.15 K	2.373	4.64	8.688	14.71	22.61	35.19	50.61	70.75	90.75
308.15 K	2.155	4.166	7.649	12.71	19.18	29.07	40.85	55.99	70.53
313.15 K	1.964	3.765	6.793	11.08	16.48	24.39	33.63	45.19	56.15
318.15 K	1.797	3.419	6.036	9.76	14.28	20.68	27.81	36.81	45.06
323.15 K	1.649	3.118	5.43	8.634	12.47	17.74	23.62	30.6	36.93

COC(=O)c1ccccc1 + CCO
viscosity [mPa·s], 100 kPa
Settings	x1 = 0.05	x1 = 0.1	x1 = 0.2	x1 = 0.3	x1 = 0.4	x1 = 0.5	x1 = 0.6	x1 = 0.65	x1 = 0.8	x1 = 0.9
293.2 K	1.178	1.178	1.207	1.26	1.325	1.402	1.489	1.536	1.701	1.842
298.2 K	1.074	1.076	1.102	1.15	1.208	1.276	1.355	1.397	1.542	1.667
303.2 K	0.98	0.983	1.008	1.052	1.106	1.167	1.238	1.276	1.408	1.518
308.2 K	0.896	0.901	0.925	0.966	1.015	1.072	1.137	1.17	1.291	1.391
313.2 K	0.822	0.827	0.851	0.89	0.936	0.988	1.047	1.079	1.188	1.279

Oc1cccc(Cl)c1 + CCO
Settings	viscosity [mPa·s]
298.15 K, 101 kPa, x1 = 0.5	1.45

CCOCCOCCOCC + CCOC(=O)OCC
viscosity [mPa·s], 101.33 kPa
Settings	298.15 K	308.15 K	318.15 K
x1 = 0.0221	0.763	0.667	0.584
x1 = 0.0409	0.776	0.675	0.592
x1 = 0.0945	0.812	0.699	0.609
x1 = 0.1858	0.863	0.741	0.643
x1 = 0.2214	0.89	0.758	0.656
x1 = 0.2775	0.923	0.784	0.677
x1 = 0.3669	0.972	0.822	0.707
x1 = 0.4971	1.041	0.879	0.747
x1 = 0.5997	1.092	0.917	0.775
x1 = 0.6836	1.133	0.947	0.801
x1 = 0.7747	1.17	0.979	0.825
x1 = 0.8683	1.214	1.009	0.849
x1 = 0.9296	1.239	1.027	0.862
x1 = 0.9694	1.255	1.04	0.871

O=C(OCc1ccccc1)c1ccccc1 + CCOC(=O)c1ccccc1
298.15 K, 101 kPa
Settings	viscosity [mPa·s]
x2 = 0.0465	8.039
x2 = 0.1549	6.898
x2 = 0.2475	6.108
x2 = 0.2973	5.695
x2 = 0.3945	4.948
x2 = 0.5054	4.309
x2 = 0.5941	3.74
x2 = 0.6906	3.249
x2 = 0.8023	2.749
x2 = 0.8963	2.371

O=C(OCc1ccccc1)c1ccccc1 + CCOC(=O)c1ccccc1C(=O)OCC
313.15 K, 101.33 kPa
Settings	viscosity [mPa·s]
x1 = 0.25	5.87
x1 = 0.5	5.54
x1 = 0.75	5.27

O=C(OCc1ccccc1)c1ccccc1 + CCOC(C)=O
298.15 K, 101 kPa
Settings	viscosity [mPa·s]
x2 = 0.0784	7.003
x2 = 0.1426	5.938
x2 = 0.2347	4.711
x2 = 0.3002	3.881
x2 = 0.4001	3.047
x2 = 0.5	2.299
x2 = 0.5863	1.789
x2 = 0.6973	1.275
x2 = 0.799	0.9116
x2 = 0.898	0.6406

CCNCCO + CCOCCOCCOCC
viscosity, 101.3 kPa
Settings	x1 = 0.313	x1 = 0.548	x1 = 0.732	x1 = 0.879	x2 = 0.1906	x2 = 0.3546	x2 = 0.5618
293.15 K	1.74 mPa·s	2.601 mPa·s and 2.603 mPa·s	4.275 mPa·s	7.482 mPa·s	5.481 mPa·s	3.2 mPa·s	2.028 mPa·s
303.15 K	1.397 mPa·s	2.007 mPa·s and 2.027 mPa·s	3.137 mPa·s	5.176 mPa·s	3.902 mPa·s	2.422 mPa·s	1.604 mPa·s
313.15 K	1.14 mPa·s	1.584 mPa·s and 1.616 mPa·s	2.372 mPa·s	3.717 mPa·s	2.88 mPa·s	1.867 mPa·s	1.291 mPa·s
323.15 K	0.9463 mPa·s	1.276 mPa·s and 1.317 mPa·s	1.844 mPa·s	2.764 mPa·s	2.189 mPa·s	1.478 mPa·s	1.056 mPa·s

CCCCOCCO + CCc1ccccc1
viscosity [mPa·s], 101 kPa
Settings	298.15 K	308.15 K
x1 = 0.0546	0.678	0.568
x1 = 0.1505	0.769	0.643
x1 = 0.2513	0.877	0.732
x1 = 0.3501	1.003	0.835
x1 = 0.4528	1.161	0.961
x1 = 0.4982	1.24	1.025
x1 = 0.55	1.339	1.103
x1 = 0.6497	1.56	1.277
x1 = 0.7511	1.831	1.487
x1 = 0.8507	2.156	1.736
x1 = 0.9614	2.601	2.071

CC(C)OCCO + CN1CCCC1=O
298.15 K, 101 kPa
Settings	viscosity [mPa·s]
x1 = 0.004	1.691
x1 = 0.0105	1.702
x1 = 0.0362	1.729
x1 = 0.0624	1.753
x1 = 0.088	1.764
x1 = 0.1136	1.779
x1 = 0.1577	1.814
x1 = 0.2017	1.843
x1 = 0.2462	1.882
x1 = 0.3116	1.929
x1 = 0.3451	1.955
x1 = 0.3748	1.969
x1 = 0.4055	1.989
x1 = 0.4494	2.011
x1 = 0.5127	2.045
x1 = 0.5735	2.073
x1 = 0.6423	2.096
x1 = 0.7229	2.118
x1 = 0.7639	2.134
x1 = 0.8354	2.127
x1 = 0.9185	2.12
x1 = 0.9736	2.109
x2 = 0.0086	2.107

CC(C)OCCO + CN(C)C=O
298.15 K, 101 kPa
Settings	viscosity [mPa·s]
x1 = 0.0025	0.815
x1 = 0.0124	0.827
x1 = 0.0296	0.854
x1 = 0.048	0.885
x1 = 0.0898	0.932
x1 = 0.1476	1.006
x1 = 0.1908	1.066
x1 = 0.2558	1.142
x1 = 0.3145	1.213
x1 = 0.344	1.247
x1 = 0.3645	1.274
x1 = 0.4159	1.34
x1 = 0.4723	1.42
x1 = 0.52	1.491
x1 = 0.562	1.543
x1 = 0.6131	1.617
x1 = 0.6641	1.697
x1 = 0.7547	1.818
x1 = 0.7959	1.874
x1 = 0.8833	2.005
x1 = 0.9392	2.069
x1 = 0.9642	2.093
x2 = 0.0058	2.104
